# How the values were obtained:
# Assay type in all cases: in vivo
# [1] = test system: Echinochloa crusgalli; assay: Weeding effect in pre-emergence stage; details: 2 weeks
# Text: (§1) The activity level criteria for plant damage (i.e., growth control rate) are as follows:
# (§2) The above growth control rates are fresh weight control rates.
# (§3) Monocotyledonous and dicotyledonous weed seeds (Descurainia sophia, Capsella bursa-pastoris, Abutilon theophrasti, Galium aparine, Stellaria media, Lithospermum arvense, Rorippa indica, Alopecurus aequalis, Alopecurus japonicus, Eleusine indica, Beckmannia syzigachne, Sclerochloa dura, Phleum paniculatum, Veronica didyma, Bromus japonicus, Aegilops tauschii, Phalaris arundinacea, Amaranthus retroflexus, Chenopodiaceae, Commelina communis, Sonchus arvensis, Convolvulus arvensis, Cirsium setosum, Solanumnigrum, Acalypha australis, Digitaria sanguinalis, Echinochloa crusgalli, Setaria viridis, Setaria glauca, Leptochloa chinensis, Monochoria vaginalis, Sagittaria trifolia, Scirpus juncoides, Cyperus rotundus, Cyperus iria, Cyperus difformis, Fimbristylis, Portulaca oleracea, Xanthium sibiricum, Pharbitis nil, Conyza Canadensis, etc.) and major crop seeds (wheat, corn, rice, soybean, cotton, oilseed rape, millet, sorghum, potato, sesame, ricinus, etc.) were placed in plastic pots filled with soil, then covered with 0.5-2 cm of soil, allowed to grow in a good greenhouse environment. The test plants were treated on the day of sowing. The tested compounds of the present invention were respectively dissolved in acetone, then added with Tween 80, diluted with a certain amount of water to obtain a solution of a certain concentration, and sprayed by a spray tower onto the plants. After the application, the plants were cultured for 2 weeks in the greenhouse, and then the experimental results of the weeding were recorded. The doses of the used compounds were 3, 6, 12, 24, 48 g ai./mu (1 mu=1/15 ha), and the averages were obtained from three replicates.
# [2] = test system: Lolium perenne; assay: Weeding effect in pre-emergence stage; details: 2 weeks
# Text: as §1, §2, §3
# [3] = test system: Veronica didyma; assay: Weeding effect in pre-emergence stage; details: 2 weeks
# Text: as §1, §2, §3
# [4] = test system: Descurainia sophia; assay: Weeding effect in pre-emergence stage; details: 2 weeks
# Text: as §1, §2, §3
# [5] = test system: Leptochloa chinensis; assay: Weeding effect in pre-emergence stage; details: 2 weeks
# Text: as §1, §2, §3
# [6] = test system: wheat; assay: Post-emergence stage, crop damage; details: 720 g a.i./ha, 3 weeks after application
# Text: as §1, §2
# (§4) Monocotyledonous and dicotyledonous weed seeds (Descurainia sophia, Capsella bursa-pastoris, Abutilon theophrasti, Galium aparine, Stellaria media, Lithospermum arvense, Rorippa indica, Alopecurus aequalis, Alopecurus japonicus, Eleusine indica, Beckmannia syzigachne, Sclerochloa dura, Phleum paniculatum, Veronica didyma, Bromus japonicus, Aegilops tauschii, Phalaris arundinacea, Amaranthus retroflexus, Chenopodiaceae, Commelina communis, Sonchus arvensis, Convolvulus arvensis, Cirsium setosum, Solanumnigrum, Acalypha australis, Digitaria sanguinalis, Echinochloa crusgalli, Setaria viridis, Setaria glauca, Leptochloa chinensis, Monochoria vaginalis, Sagittaria trifolia, Scirpus juncoides, Cyperus rotundus, Cyperus iria, Cyperus difformis, Fimbristylis, Portulaca oleracea, Xanthium sibiricum, Pharbitis nil, Conyza Canadensis, etc.) and major crop seeds (wheat, corn, rice, soybean, cotton, oilseed rape, millet, sorghum, potato, sesame, ricinus, etc.) were placed in plastic pots filled with soil, then covered with 0.5-2 cm of soil, allowed to grow in a good greenhouse environment. Two weeks after sowing, the test plants were treated in the 2-3 leaf stage. The tested compounds of the present invention were respectively dissolved in acetone, then added with Tween 80 and 1.5 liter/ha of emulsifiable concentrate of methyl oleate as synergist, diluted with a certain amount of water to obtain a solution of a certain concentration, and sprayed by a spray tower onto the plants. After the application, the plants were cultured for 3 weeks in the greenhouse, and then the experimental results of the weeding were recorded. The doses of the used compounds were 45, 90, 180, 360, 720 g a.i./ha, and the averages were obtained from three replicates.
# [7] = test system: rice; assay: Post-emergence stage, crop damage; details: 720 g a.i./ha, 3 weeks after application
# Text: as §1, §2, §4
# [8] = test system: cotton; assay: Pre-emergence stage, crop damage; details: 2 weeks
# Text: as §1, §2, §3
# [9] = test system: soy bean; assay: Pre-emergence stage, crop damage; details: 2 weeks
# Text: as §1, §2, §3
# [10] = test system: peanut; assay: Pre-emergence stage, crop damage; details: 48 g a.i./mu, 2 weeks
# Text: as §1, §2, §3
# [11] = test system: wheat; assay: Pre-emergence stage, crop damage; details: 2 weeks
# Text: as §1, §2, §3
# [12] = test system: rice; assay: Pre-emergence stage, crop damage; details: 2 weeks
# Text: as §1, §2, §3
# [13] = test system: corn; assay: Pre-emergence stage, crop damage; details: 24 g a.i./mu, 2 weeks
# Text: as §1, §2, §3
# [14] = test system: weeds; assay: Activity test of the compositions, soil sealing treatment; details: read-out: Control effect (%) of B applied alone (B)
# Outline: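 Pre-emergence soil spray at 450 kg/ha, 0.3 MPa, applied 72 h after sowing pre-germinated seeds, 20 seeds per pot, 4 pots, 4 repeats; actives in acetone diluted with 0.10% Tween-80. Greenhouse, 20 to 30° C; surviving weed fresh weight measured 21 days after treatment.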
# [15] = test system: Abutilon theophrasti; assay: Weeding effect in post-emergence stage; details: 720 g a.i./ha, 3 weeks after application
# Text: as §1, §2, §4
# [16] = test system: Alopecurus japonicus; assay: Weeding effect in post-emergence stage; details: 720 g a.i./ha, 3 weeks after application
# Text: as §1, §2, §4
# [17] = test system: Leptochloa chinensis; assay: Weeding effect in post-emergence stage; details: 720 g a.i./ha, 3 weeks after application
# Text: as §1, §2, §4
# [18] = test system: Digitaria sanguinalis; assay: Weeding effect in post-emergence stage; details: 720 g a.i./ha, 3 weeks after application
# Text: as §1, §2, §4
# [19] = test system: Echinochloa crusgalli, Scirpus juncoides, Bidens tripartita L., Sagittaria trifolia; assay: Tests on resistance of the collected weeds to pyrazosulfuron-ethyl; details: regular doses; weed seeds collected from Heilongjiang Province of China
# Text: Note: The seeds of Echinochloa crusgalli, Scirpus juncoides and Bidens tripartita L., and Sagittaria trifolia were collected from Heilongjiang Province of China.
compound,measurement,setting,value
"CC1(C)CON(Cc2ccc(Cl)cc2Cl)C1=O [Control compound A, bixlozone]","weeding effect in pre-emergence stage, activity level (growth control rate)",[1]; 3 g a.i./mu,7 (Level 7: growth control rate is greater than or equal to 70% and less than 80%)
same,"weeding effect in pre-emergence stage, activity level (growth control rate)",[1]; 6 g a.i./mu,9
same,"weeding effect in pre-emergence stage, activity level (growth control rate)",[1]; 12 g a.i./mu,9
same,"weeding effect in pre-emergence stage, activity level (growth control rate)",[1]; 24 g a.i./mu,9
same,"weeding effect in pre-emergence stage, activity level (growth control rate)",[2]; 6 g a.i./mu,2 (Level 2: growth control rate is greater than or equal to 15% and less than 30%)
same,"weeding effect in pre-emergence stage, activity level (growth control rate)",[2]; 24 g a.i./mu,9
same,"weeding effect in pre-emergence stage, activity level (growth control rate)",[3]; 6 g a.i./mu,8 (Level 8: growth control rate is greater than or equal to 80% and less than 100%)
same,"weeding effect in pre-emergence stage, activity level (growth control rate)",[3]; 12 g a.i./mu,9
same,"weeding effect in pre-emergence stage, activity level (growth control rate)",[3]; 24 g a.i./mu,9
same,"weeding effect in pre-emergence stage, activity level (growth control rate)",[4]; 3 g a.i./mu,4 (Level 4: growth control rate is greater than or equal to 40% and less than 50%)
same,"weeding effect in pre-emergence stage, activity level (growth control rate)",[4]; 6 g a.i./mu,4 (Level 4: growth control rate is greater than or equal to 40% and less than 50%)
same,"weeding effect in pre-emergence stage, activity level (growth control rate)",[4]; 12 g a.i./mu,9
same,"weeding effect in pre-emergence stage, activity level (growth control rate)",[4]; 24 g a.i./mu,9
same,"weeding effect in pre-emergence stage, activity level (growth control rate)",[5]; 3 g a.i./mu,6 (Level 6: growth control rate is greater than or equal to 60% and less than 70%)
same,"weeding effect in pre-emergence stage, activity level (growth control rate)",[5]; 6 g a.i./mu,9
same,"weeding effect in pre-emergence stage, activity level (growth control rate)",[5]; 12 g a.i./mu,9
same,"weeding effect in pre-emergence stage, activity level (growth control rate)",[5]; 24 g a.i./mu,9
same,"plant damage level (growth control rate) on crop, post-emergence stage",[6],3 (Level 3: growth control rate is greater than or equal to 40% and less than 60%)
same,"plant damage level (growth control rate) on crop, post-emergence stage",[7],2 (Level 2: growth control rate is greater than or equal to 20% and less than 40%)
same,"plant damage level (growth control rate) on crop, pre-emergence stage",[8]; 12 g a.i./mu,1 (Level 1: growth control rate is greater than 0% and less than 15%)
same,"plant damage level (growth control rate) on crop, pre-emergence stage",[8]; 24 g a.i./mu,2 (Level 2: growth control rate is greater than or equal to 15% and less than 30%)
same,"plant damage level (growth control rate) on crop, pre-emergence stage",[9]; 24 g a.i./mu,1 (Level 1: growth control rate is greater than 0% and less than 15%)
same,"plant damage level (growth control rate) on crop, pre-emergence stage",[9]; 48 g a.i./mu,2 (Level 2: growth control rate is greater than or equal to 15% and less than 30%)
same,"plant damage level (growth control rate) on crop, pre-emergence stage",[10],1 (Level 1: growth control rate is greater than 0% and less than 15%)
same,"plant damage level (growth control rate) on crop, pre-emergence stage",[11]; 6 g a.i./mu,1 (Level 1: growth control rate is greater than 0% and less than 15%)
same,"plant damage level (growth control rate) on crop, pre-emergence stage",[11]; 12 g a.i./mu,1 (Level 1: growth control rate is greater than 0% and less than 15%)
same,"plant damage level (growth control rate) on crop, pre-emergence stage",[11]; 24 g a.i./mu,2 (Level 2: growth control rate is greater than or equal to 15% and less than 30%)
same,"plant damage level (growth control rate) on crop, pre-emergence stage",[12]; 6 g a.i./mu,1 (Level 1: growth control rate is greater than 0% and less than 15%)
same,"plant damage level (growth control rate) on crop, pre-emergence stage",[12]; 12 g a.i./mu,2 (Level 2: growth control rate is greater than or equal to 15% and less than 30%)
same,"plant damage level (growth control rate) on crop, pre-emergence stage",[12]; 24 g a.i./mu,4 (Level 4: growth control rate is greater than or equal to 40% and less than 50%)
same,"plant damage level (growth control rate) on crop, pre-emergence stage",[13],2 (Level 2: growth control rate is greater than or equal to 15% and less than 30%)
same,pest or weed control at 30 g/ha,"[14]; Echinochloa crus-galli, 504 h, Echinochloa crusgalli, soil treatment (S), B at 2 g a.i./mu, 21 days",41.3%
same,pest or weed control at 60 g/ha,"[14]; Echinochloa crus-galli, 504 h, Echinochloa crusgalli, soil treatment (S), B at 4 g a.i./mu, 21 days",50.3%
same,"weeding effect in post-emergence stage, activity level (growth control rate)",[15],4 (Level 4: growth control rate is greater than or equal to 60% and less than 85%)
same,"weeding effect in post-emergence stage, activity level (growth control rate)",[16],3 (Level 3: growth control rate is greater than or equal to 40% and less than 60%)
same,"weeding effect in post-emergence stage, activity level (growth control rate)",[17],2 (Level 2: growth control rate is greater than or equal to 20% and less than 40%)
same,"weeding effect in post-emergence stage, activity level (growth control rate)",[18],3 (Level 3: growth control rate is greater than or equal to 40% and less than 60%)
"CCOC(=O)c1cnn(C)c1S(=O)(=O)NC(=O)Nc1nc(OC)cc(OC)n1 [pyrazosulfuron-ethyl, reference compound]",response of the collected weeds to pyrazosulfuron-ethyl,[19],resistant
same,pest or weed control at 3.75 g/ha,"[14]; Cyperus difformis, soil (S), B 0.25 g a.i./mu",44.8%
same,pest or weed control at 7.5 g/ha,"[14]; Cyperus difformis, soil (S), B 0.5 g a.i./mu",59.7%

# Source: patent US20240327359A1, “3-ISOXAZOLIDINONE COMPOUND, PREPARATION METHOD, HERBICIDAL COMPOSITION AND APPLICATION THEREOF” (QINGDAO KINGAGROOT CHEMICAL COMPOUND CO., LTD., priority 2021, published 2024)
